Results published in ChEMBL document CHEMBL6078660, “Goondomycins A-H: Carbocyclic ansa-Polyketides from an Australian Pasture Streptomyces with Selective Activity against Dirofilaria immitis” (J Nat Prod, 2024).
Peptide text beside a SMILES is read from it. * marks the point of attachment. NHCH2CH2OH = OCCN*; For = O=C*

Experiments:
[1] = system: Haemonchus contortus; test: Anthelmintic activity against Haemonchus contortus L1 to L3 stage assessed as larvae development incubated for 4 days; type: functional, organism-based; conditions: 96 h
[2] = Cytotoxicity against human SW620 cells incubated for 24 hrs by MTT assay; type: toxicity, cell-based, SW-620
[3] = Cytotoxicity against human NCI-H460 cells incubated for 24 hrs by MTT assay; type: toxicity, cell-based
[4] = system: Escherichia coli; test: Antibacterial activity against Escherichia coli ATCC 11775 assessed as inhibition of bacterial growth incubated for 24 hrs by spectrophotometer based analysis; type: functional, organism-based; conditions: ATCC 11775, 24 h
[5] = system: Candida albicans; test: Antifungal activity against Candida albicans ATCC 10231 assessed as inhibition of fungal growth incubated for 48 hrs by spectrophotometer based analysis; type: functional, organism-based; conditions: ATCC 10231, 48 h
[6] = system: Staphylococcus aureus; test: Antibacterial activity against Staphylococcus aureus ATCC 25923 assessed as inhibition of bacterial growth incubated for 24 hrs by spectrophotometer based analysis; type: functional, organism-based; conditions: ATCC 25923, 24 h
[7] = system: Dirofilaria immitis; test: Anthelmintic activity against Dirofilaria immitis microfilaria stage assessed as inhibition of motility incubated for approximately 72 hrs; type: functional, organism-based
[8] = system: Dirofilaria immitis; test: Anthelmintic activity against Dirofilaria immitis L4 stage assessed as inhibition of motility incubated for approximately 72 hrs; type: functional, organism-based

Row | Structure (SMILES) | EC50 [1] [µM] | IC50 at 24 h [2] [µM] | IC50 at 24 h [3] [µM] | IC50 [4] [µM] | IC50 [5] [µM] | IC50 [6] [µM] | EC50 [7] [µM] | EC50 [8] [µM]
1 | CC[C@H](C)[C@H]1O[C@]2(CC[C@@H]1C)C[C@@H]1C[C@@H](C/C=C(\C)[C@@H](O[C@H]3C[C@H](OC)[C@@H](O[C@H]4C[C@H](OC)[C@@H](O)[C@H](C)O4)[C@H](C)O3)[C@@H](C)/C=C/C=C3\CO[C@@H]4[C@H](O)C(C)=C[C@@H](C(=O)O1)[C@]34O)O2 | 0.001 |  |  |  |  |  |  | 
2 | CC1=C2O[C@]3(O)C(N)=C2C(=C(O)C1=O)[C@@H]1O[C@@H](CC[C@H](C)/C=C(\C)C[C@@H](C)C[C@@H]3C)[C@H](C)[C@H](O)[C@@H]1C | 24 | > 30 | > 30 | > 30 | > 30 | ≥ 3.6 | 0.5 | 5
3 | CSC1=C2C3=C(C)C(=O)C(O)=C2[C@@H]2O[C@@H](CC[C@H](C)/C=C(\C)C[C@@H](C)C[C@H](C)[C@]1(O)O3)[C@H](C)[C@H](O)[C@@H]2C | 30 | 2.4 | 13.5 | > 30 | > 30 | ≥ 3.6 | 0.3 | 1.4
4 | C/C1=C\[C@@H](C)CC[C@@H]2O[C@@H](c3c(O)c(O)c(C)c4c3C(=O)[C@@](O)(O4)[C@@H](C)C[C@H](C)C1)[C@@H](C)[C@@H](O)[C@H]2C | 50 | > 30 | > 30 | > 30 | > 30 | ≥ 3.6 | 1.3 | 24
5 | CC1=c2oc3c(O)c2=C(C(=O)C1=O)[C@@H]1O[C@@H](CC[C@H](C)/C=C(\C)C[C@@H](C)C[C@@H]3C)[C@H](C)[C@H](O)[C@@H]1C | 43 | > 30 | > 30 | > 30 | > 30 | ≥ 3.6 | 0.2 | 1.8
6 | CC1=C2O[C@]3(O)C=C2C(=C(O)C1=O)[C@@H]1O[C@@H](CC[C@H](C)/C=C(\C)C[C@@H](C)C[C@@H]3C)[C@H](C)[C@H](O)[C@@H]1C | 49 | > 30 | > 30 | > 30 | > 30 | ≥ 3.6 | 4.1 | 18
7 | CC[C@]1([C@H]2O[C@H]([C@@H]3O[C@](O)(CO)[C@@H](C)C[C@H]3C)C[C@H]2C)CC[C@@H]([C@@]2(C)CC[C@@]3(C[C@@H](O)[C@H](C)[C@H]([C@H](C)[C@H](OC)[C@H](C)C(=O)O)O3)O2)O1 |  |  |  |  |  |  |  | 0.4
8 | CC1=C(O)C(=O)c2c3sc(c2C1=O)C(=O)[C@@H](C)C[C@H](C)C/C(C)=C/[C@@H](C)CC[C@@H](O)[C@H](C)[C@H](O)[C@@H]3C | 47 | > 30 | > 30 | > 30 | > 30 | ≥ 3.6 | 2.1 | 19
9 | CC1=C(O)C(=O)C2=C(C1=O)[C@H](S(=O)(=O)O)C(=O)[C@@H](C)C[C@H](C)C/C(C)=C/[C@@H](C)CC[C@@H]1O[C@@H]2[C@@H](C)[C@@H](O)[C@H]1C | 44 | > 30 | > 30 | > 30 | > 30 | ≥ 3.6 | 21 | 44
10 | CC(=O)N[C@@H](CSC1=C2C3=C(C)C(=O)C(O)=C2[C@@H]2O[C@@H](CC[C@H](C)/C=C(\C)C[C@@H](C)C[C@H](C)[C@]1(O)O3)[C@H](C)[C@H](O)[C@@H]2C)C(=O)O | 39 | > 30 | > 30 | > 30 | > 30 | ≥ 3.6 | 3.6 | 22
11 | CC(C)C[C@H](NC(=O)[C@H](C)NC(=O)CNC(=O)[C@@H](NC=O)C(C)C)C(=O)N[C@@H](C)C(=O)N[C@H](C(=O)N[C@H](C(=O)N[C@H](C(=O)N[C@@H](Cc1c[nH]c2ccccc12)C(=O)N[C@@H](CC(C)C)C(=O)N[C@@H](Cc1c[nH]c2ccccc12)C(=O)N[C@@H](CC(C)C)C(=O)N[C@@H](Cc1c[nH]c2ccccc12)C(=O)N[C@@H](CC(C)C)C(=O)N[C@@H](Cc1c[nH]c2ccccc12)C(=O)NCCO)C(C)C)C(C)C)C(C)C (For-VGALAVVVWLWLWLW-NHCH2CH2OH) |  |  |  |  |  |  | 0.1 | 
